Measured values published in PubChem BioAssay (NCI).
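Method: 48-hour compound exposure of cells in 96-well plates, five concentrations, linear interpolation of endpoints. GI50 marks 50% less growth. At the TGI there is no net growth.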

Experiments:
Assay in all cases: growth of human tumour cells (NCI), 48 h
HT29 colon = system: HT29 colon
SK-OV-3 ovarian = system: SK-OV-3 ovarian
OVCAR-4 ovarian = system: OVCAR-4 ovarian
NCI/ADR-RES ovarian = system: NCI/ADR-RES ovarian
SF-268 CNS = system: SF-268 CNS
COLO 205 colon = system: COLO 205 colon
HCC-2998 colon = system: HCC-2998 colon
BT-549 breast = system: BT-549 breast
HCT-116 colon = system: HCT-116 colon
A549 NSCLC = system: A549 NSCLC
U251 CNS = system: U251 CNS
A498 renal = system: A498 renal
SK-MEL-5 melanoma = system: SK-MEL-5 melanoma
SR leukemia = system: SR leukemia
UO-31 renal = system: UO-31 renal
LOX IMVI melanoma = system: LOX IMVI melanoma
SNB-19 CNS = system: SNB-19 CNS
MALME-3M melanoma = system: MALME-3M melanoma
MOLT-4 leukemia = system: MOLT-4 leukemia
UACC-257 melanoma = system: UACC-257 melanoma
KM12 colon = system: KM12 colon
HL-60(TB) leukemia = system: HL-60(TB) leukemia
RXF 393 renal = system: RXF 393 renal
ACHN renal = system: ACHN renal
DU-145 prostate = system: DU-145 prostate
CCRF-CEM leukemia = system: CCRF-CEM leukemia
IGROV1 ovarian = system: IGROV1 ovarian
NCI-H226 lung = system: NCI-H226 lung
HCT-15 colon = system: HCT-15 colon
MDA-MB-231 breast = system: MDA-MB-231 breast
EKVX NSCLC = system: EKVX NSCLC
SF-539 CNS = system: SF-539 CNS
RPMI-8226 leukemia = system: RPMI-8226 leukemia
SW-620 colon = system: SW-620 colon
NCI-H23 lung = system: NCI-H23 lung
MDA-MB-435 = system: MDA-MB-435
UACC-62 melanoma = system: UACC-62 melanoma
SNB-75 CNS = system: SNB-75 CNS
PC-3 prostate = system: PC-3 prostate
HS 578T breast = system: HS 578T breast
NCI-H522 lung = system: NCI-H522 lung
SK-MEL-2 melanoma = system: SK-MEL-2 melanoma
SN12C renal = system: SN12C renal
OVCAR-8 ovarian = system: OVCAR-8 ovarian
MCF7 breast = system: MCF7 breast
NCI-H460 lung = system: NCI-H460 lung
K-562 leukemia = system: K-562 leukemia
M14 melanoma = system: M14 melanoma
T-47D breast = system: T-47D breast
786-0 renal = system: 786-0 renal
OVCAR-5 ovarian = system: OVCAR-5 ovarian
CAKI-1 renal = system: CAKI-1 renal
HOP-62 NSCLC = system: HOP-62 NSCLC
SK-MEL-28 melanoma = system: SK-MEL-28 melanoma
HOP-92 NSCLC = system: HOP-92 NSCLC
TK-10 renal = system: TK-10 renal
OVCAR-3 ovarian = system: OVCAR-3 ovarian
SF-295 CNS = system: SF-295 CNS

Cc1cccc(/C=C/C(=O)Nc2ncc(Cc3cccc(C)c3)s2)c1
GI50 (HT29 colon): 739 nM
TGI (HT29 colon): 2580 nM
GI50 (SK-OV-3 ovarian): 1670 nM
TGI (SK-OV-3 ovarian): > 100000 nM
GI50 (OVCAR-4 ovarian): 1390 nM
TGI (OVCAR-4 ovarian): > 100000 nM
GI50 (NCI/ADR-RES ovarian): 869 nM
TGI (NCI/ADR-RES ovarian): > 100000 nM
GI50 (SF-268 CNS): 2540 nM
TGI (SF-268 CNS): > 100000 nM
GI50 (COLO 205 colon): 766 nM
TGI (COLO 205 colon): 3000 nM
GI50 (HCC-2998 colon): 1680 nM
TGI (HCC-2998 colon): > 100000 nM
GI50 (BT-549 breast): 1290 nM
TGI (BT-549 breast): > 100000 nM
GI50 (HCT-116 colon): 1100 nM
TGI (HCT-116 colon): > 100000 nM
GI50 (A549 NSCLC): 1020 nM
TGI (A549 NSCLC): > 100000 nM
GI50 (U251 CNS): 1110 nM
TGI (U251 CNS): > 100000 nM
GI50 (A498 renal): > 27700 nM
TGI (A498 renal): > 100000 nM
GI50 (SK-MEL-5 melanoma): 1230 nM
TGI (SK-MEL-5 melanoma): > 81100 nM
GI50 (SR leukemia): 179 nM
TGI (SR leukemia): > 100000 nM
GI50 (UO-31 renal): 618 nM
TGI (UO-31 renal): > 100000 nM
GI50 (LOX IMVI melanoma): 841 nM
TGI (LOX IMVI melanoma): > 100000 nM
GI50 (SNB-19 CNS): 1400 nM
TGI (SNB-19 CNS): > 100000 nM
GI50 (MALME-3M melanoma): 1300 nM
TGI (MALME-3M melanoma): > 100000 nM
GI50 (MOLT-4 leukemia): 710 nM
TGI (MOLT-4 leukemia): > 100000 nM
GI50 (UACC-257 melanoma): 1590 nM
TGI (UACC-257 melanoma): > 100000 nM
GI50 (KM12 colon): 339 nM
TGI (KM12 colon): > 75000 nM
GI50 (HL-60(TB) leukemia): 579 nM
TGI (HL-60(TB) leukemia): 1970 nM
GI50 (RXF 393 renal): 910 nM
TGI (RXF 393 renal): 5950 nM
GI50 (ACHN renal): 1060 nM
TGI (ACHN renal): > 100000 nM
GI50 (DU-145 prostate): 876 nM
TGI (DU-145 prostate): > 100000 nM
GI50 (CCRF-CEM leukemia): 884 nM
TGI (CCRF-CEM leukemia): > 100000 nM
GI50 (IGROV1 ovarian): 1670 nM
TGI (IGROV1 ovarian): > 100000 nM
GI50 (NCI-H226 lung): 1280 nM
TGI (NCI-H226 lung): > 100000 nM
GI50 (HCT-15 colon): 585 nM
TGI (HCT-15 colon): > 100000 nM
GI50 (MDA-MB-231 breast): 2920 nM
TGI (MDA-MB-231 breast): > 100000 nM
GI50 (EKVX NSCLC): 1220 nM
TGI (EKVX NSCLC): > 100000 nM
GI50 (SF-539 CNS): 863 nM
TGI (SF-539 CNS): > 32500 nM
GI50 (RPMI-8226 leukemia): 1140 nM
TGI (RPMI-8226 leukemia): > 100000 nM
GI50 (SW-620 colon): 1130 nM
TGI (SW-620 colon): > 100000 nM
GI50 (NCI-H23 lung): 6620 nM
TGI (NCI-H23 lung): > 100000 nM
GI50 (MDA-MB-435): 303 nM
TGI (MDA-MB-435): 1140 nM
GI50 (UACC-62 melanoma): 144 nM
TGI (UACC-62 melanoma): > 100000 nM
GI50 (SNB-75 CNS): 903 nM
TGI (SNB-75 CNS): > 20500 nM
GI50 (PC-3 prostate): 875 nM
TGI (PC-3 prostate): > 100000 nM
GI50 (HS 578T breast): 1040 nM
TGI (HS 578T breast): > 100000 nM
GI50 (NCI-H522 lung): 599 nM
TGI (NCI-H522 lung): 2080 nM
GI50 (SK-MEL-2 melanoma): 627 nM
TGI (SK-MEL-2 melanoma): 4750 nM
GI50 (SN12C renal): 1680 nM
TGI (SN12C renal): > 100000 nM
GI50 (OVCAR-8 ovarian): 1360 nM
TGI (OVCAR-8 ovarian): > 100000 nM
GI50 (MCF7 breast): 820 nM
TGI (MCF7 breast): > 100000 nM
GI50 (NCI-H460 lung): 545 nM
TGI (NCI-H460 lung): > 100000 nM
GI50 (K-562 leukemia): 117 nM
TGI (K-562 leukemia): > 100000 nM
GI50 (M14 melanoma): 568 nM
TGI (M14 melanoma): 1890 nM
GI50 (T-47D breast): 575 nM
TGI (T-47D breast): > 100000 nM
GI50 (786-0 renal): 1190 nM
TGI (786-0 renal): > 100000 nM
GI50 (OVCAR-5 ovarian): 1440 nM
TGI (OVCAR-5 ovarian): > 100000 nM
GI50 (CAKI-1 renal): 518 nM
TGI (CAKI-1 renal): > 100000 nM
GI50 (HOP-62 NSCLC): 633 nM
TGI (HOP-62 NSCLC): > 100000 nM
GI50 (SK-MEL-28 melanoma): 1930 nM
TGI (SK-MEL-28 melanoma): > 100000 nM
GI50 (HOP-92 NSCLC): 1250 nM
TGI (HOP-92 NSCLC): > 100000 nM
GI50 (TK-10 renal): > 25600 nM
TGI (TK-10 renal): > 100000 nM
GI50 (OVCAR-3 ovarian): 1050 nM
TGI (OVCAR-3 ovarian): 8550 nM
GI50 (SF-295 CNS): 329 nM
TGI (SF-295 CNS): 2460 nM
